Laboratory results reported in patent US20240368104A1, “Novel Dialkoxynaphtho[2,3-C]Furan-1(3H)-One Derivatives and Pharmaceutical Composition For Preventing or Treating Respiratory Disease or SARS-COV-2 Infection Disease, Comprising Same” (priority 2021, published 2024).
pIC50: −log10 of the molar value. Where a name gives a salt, the structure may show the parent alone. Read-outs that look alike come from different tables or passages of the source.

How the values were obtained:
SARS-COV-2 = assay: microbe, parasite or virus in culture; format: cell-based; set-up: SI (Selectivity Index, CC50/IC50): unit not given here; settings: for SI (Selectivity Index, CC50/IC50): SARS-COV-2, values >50 assumed to be 50; for pIC50: read-out: SARS-COV-2 inhibition (IC50)
in vitro = settings: African green monkey
[1] = Severe acute respiratory syndrome coronavirus 2, Vero cells, 24 hours infection
[2] = Severe acute respiratory syndrome coronavirus 2, Vero, 24 h

SMILES | SI (Selectivity Index, CC50/IC50) (SARS-COV-2) | pIC50 (SARS-COV-2; [1]) | CC50 (in vitro) [µM] | pIC50 (SARS-COV-2; [2]) | pIC50 (SARS-COV-2)
COc1cc2cc3c(c(-c4ccnc5c(F)cccc45)c2cc1OC)C(=O)OC3 [Example 137, 9-(8-fluoroquinolin-4-yl)-6,7-dimethoxynaphtho[2,3-c]furan-1(3H)-one] | 1.0 | < 4.30 | > 50 | – | –
COc1cc2cc3c(c(-c4cnc(/N=C\CN(C)C)cn4)c2cc1OC)C(=O)OC3 [Example 29, (Z)-9-(5-((2-(dimethylamino)ethyliden)amino)pyrazin-2-yl)-6,7-dimethoxynaphtho[2,3-c]furan-1(3H)-one] | 1.00 | < 4.30 | > 50 | – | –
COc1cc2cc3c(c(-c4ccc(N(C)c5nn(C)cc5C#N)nc4)c2cc1OC)C(=O)OC3.Cl [Example 241, 3-((5-(6,7-dimethoxy-3-oxo-1,3-dihydronaphtho[2,3-c]furan-4-yl)pyridin-2-yl)(methyl)amino)-1-methyl-1H-pyrazol-4-carbonitrile] | 1.00 | – | > 50 | < 4.30 | –
CCN(C)c1ccc(-c2c3c(cc4cc(OC)c(OC)cc24)COC3=O)cn1 [Example 178, 9-(6-(ethyl(methyl)amino)pyridin-3-yl)-6,7-dimethoxynaphtho[2,3-c]furan-1(3H)-one] | 1323.43 | 7.40 | > 50 | – | –
CCN(c1ncc(-c2c3c(cc4cc(OC)c(OC)cc24)COC3=O)cn1)C1CCCC1.Cl [Example 92, 9-(2-(cyclopentyl(ethyl)amino)pyrimidin-5-yl)-6,7-dimethoxynaphtho[2,3-c]furan-1(3H)-one hydrochloride] | 42.34 | – | > 50 | 5.93 | –
COc1cc2cc3c(c(-c4ccc(N5CCC(O)CC5)nc4)c2cc1OC)C(=O)OC3 [Example 165, 9-(6-(4-hydroxypiperidin-1-yl)pyridin-3-yl)-6,7-dimethoxynaphtho[2,3-c]furan-1(3H)-one] | 11.69 | 5.54 | 34 | – | –
CCN(c1ccc(-c2c3c(cc4cc(OC)c(OC)cc24)COC3=O)cn1)C1Cc2ccccc2C1 [Example 195, 9-(6-((2,3-dihydro-1H-indan-2-yl)(ethyl)amino)pyridin-3-yl)-6,7-dimethoxynaphtho[2,3-c]furan-1(3H)-one] | 9.50 | 5.28 | > 50 | – | –
COc1cc2cc3c(c(-c4cc5c(cc4OC(=O)OC(C)C)OCO5)c2cc1OC)C(=O)OC3 [Example 98, 6-(6,7-dimethoxy-3-oxo-1,3-dihydronaphtho[2,3-c]furan-4-yl)benzo[d][1,3]dioxol-5-yl isopropyl carbonate] | 3.18 | 4.80 | > 50 | – | –
COc1cc2cc3c(c(-c4cnc(Oc5cccc6ccccc56)nc4)c2cc1OC)C(=O)OC3 [Example 21, 6,7-dimethoxy-9-(2-(naphthalen-1-yloxy)pyrimidin-5-yl)naphtho[2,3-c]furan-1(3H)-one] | 1.00 | < 4.30 | > 50 | – | –
COc1cc2cc3c(c(N4CCNCC4)c2cc1OC)C(=O)OC3 [Example 128, 6,7-dimethoxy-9-(piperazin-1-yl)naphtho[2,3-c]furan-1(3H)-one] | 1.78 | – | > 50 | 4.55 | –
COc1cc2cc3c(c(-c4ccc(N(C)Cc5cccs5)nc4)c2cc1OC)C(=O)OC3 [Example 198, 6,7-dimethoxy-9-(6-(methyl(thiophen-2-ylmethyl)amino)pyridin-3-yl)naphtho[2,3-c]furan-1(3H)-one] | 48.47 | 5.99 | > 50 | – | –
COc1cc2c(OC)c3c(c(-c4ccc(-n5cc(C#N)c(N(C)C)n5)nc4)c2cc1OC)COC3=O [Example 264, 3-(dimethylamino)-1-(5-(6,7,9-trimethoxy-1-oxo-1,3-dihydronaphtho[2,3-c]furan-4-yl)pyridin-2-yl)-1H-pyrazol-4-carbonitrile] | 1.00 | < 4.30 | > 50 | – | –
COc1cc2cc3c(c(-c4cnc(N5C[C@H](C)O[C@@H](C)C5)nc4)c2cc1OC)C(=O)OC3 [Example 62, 9-(2-((2S,6S)-2,6-dimethylmorpholino)pyrimidin-5-yl)-6,7-dimethoxynaphtho[2,3-c]furan-1(3H)] | 1.00 | < 4.30 | > 50 | – | –
COc1cc2cc3c(c(-c4cnc(N[C@@H](C)c5ccc(F)cc5)nc4)c2cc1OC)C(=O)OC3 [Example 55, (S)-9-(2-((1-(4-fluorophenyl)ethyl)amino)pyrimidin-5-yl)-6,7-dimethoxynaphtho[2,3-c]furan-1(3H)-one] | 4.23 | 4.93 | > 50 | – | –
COc1cc2cc3c(c(-c4cnc(N5CCC(C)CC5)nc4)c2cc1OC)C(=O)OC3 [Example 107, 6,7-dimethoxy-9-(2-(4-methylpiperidin-1-yl)pyrimidin-5-yl)naphtho[2,3-c]furan-(3H)-one hydrochloride] | 35.49 | 5.85 | > 50 | – | –
COc1cc2cc3c(c(-c4cc5c(cc4OP(=O)(NC(C)C)Oc4ccccc4)OCO5)c2cc1OC)C(=O)OC3 (stereo not drawn) [Example 278, 6-(6,7-dimethoxy-3-oxo-1,3-dihydronaphtho[2,3-c]furan-4-yl)benzo[d][1,3]dioxol-5-yl phenyl isopropylphosphoramidate] | 1.00 | – | > 50 | < 4.30 | –
COc1cc2cc3c(c(-c4ccc5nccc(O)c5c4)c2cc1OC)C(=O)OC3 [Example 117, 9-(4-hydroxyquinolin-6-yl)-6,7-dimethoxynaphtho[2,3-c]furan-1(3H)-one] | 1.0 | < 4.30 | > 50 | – | –
COc1cc2cc3c(c(-c4ccnc(F)c4)c2cc1OC)C(=O)OC3 [Example 186, 9-(2-fluoropyridin-4-yl)-6,7-dimethoxynaphtho[2,3-c]furan-1(3H)-one] | 1.0 | < 4.30 | > 50 | – | –
COc1cc2cc3c(c(-c4ccc(C(=O)c5ccccc5)s4)c2cc1OC)C(=O)OC3 [Example 53] | 19.94 | 5.60 | > 50 | – | –
CCN(CC)c1ccc(-c2c3c(cc4cc(OC)c(OC)cc24)COC3=O)cn1 [Example 160, 9-(6-(diethylamino)pyridin-3-yl)-6,7-dimethoxynaphtho[2,3-c]furan-1(3H)-one] | 60.45 | 6.08 | > 50 | – | –
COCCN(C)c1ccc(-c2c3c(c(OC)c4cc(OC)c(OC)cc24)C(=O)OC3)cn1.Cl [Example 265, 6,7,9-trimethoxy-4-(6-((2-methoxyethyl)(methyl)amino)pyridin-3-yl)naphtho[2,3-c]furan-1(3H)-one] | 1.51 | – | > 50 | 4.48 | –
COCCN(C)c1ccc(-c2c3c(cc4cc(OC)c(OC)cc24)COC3=O)cn1.Cl [Example 168, 6,7-dimethoxy-9-(6-((2-methoxyethyl)(methyl)amino)pyridin-3-yl)naphtho[2,3-c]furan-1(3H)-one hydrochloride] | 42.46 | – | > 50 | 5.93 | –
COc1cc2cc3c(c(N4CCN(c5cc(Cl)nc(SC)n5)CC4)c2cc1OC)C(=O)OC3 [Example 130, 9-(4-(6-chloro-2-(methylthio)pyrimidin-4-yl)pilerazin-1-yl)-6,7-dimethoxynaphtho[2,3-c]furan-1(3H)-one] | 1.0 | < 4.30 | > 50 | – | –
CCN(CCOC)c1ccc(-c2c3c(cc4cc(OC)c(OC)cc24)COC3=O)cc1 [Example 253, 9-(4-(ethyl(2-methoxyethyl)amino)phenyl)-6,7-dimethoxynaphtho[2,3-c]furan-1(3H)-one] | 20.54 | 5.61 | > 50 | – | –
CCCN(CC1CC1)c1ncc(-c2c3c(cc4cc(OC)c(OC)cc24)COC3=O)cn1 [Example 105, 9-(2-((cyclopropylmethyl)(propyl)amino)pyrimidin-5-yl)-6,7-dimethoxynaphtho[2,3-c]furan-1(3H)-one hydrochloride] | 9.56 | – | > 50 | 5.28 | –
COc1cc2c(OC)c3c(c(-c4ccc(N(C)[C@H]5CCc6c(cccc6OC)C5)nc4)c2cc1OC)COC3=O [Example 266, (S)-6,7,9-trimethoxy-4-(6-((5-methoxy-1,2,3,4-tetrahydronaphthalen-2-yl)(methyl)amino)pyridin-3-yl)naphtho[2,3-c]furan-1(3H)-one] | 1.00 | < 4.30 | > 50 | – | –
CCN(c1ncc(-c2c3c(cc4cc(OC)c(OC)cc24)COC3=O)cn1)C(C)C.Cl [Example 75, 9-(2-(ethyl(isopropyl)amino)pyrimidin-5-yl)-6,7-dimethoxynaphtho[2,3-c]furan-1(3H)-one hydrochloride] | 60.56 | – | > 50 | 6.08 | –
COc1cc2cc3c(c(-c4cnc(N(C)C5CC5)nc4)c2cc1OC)C(=O)OC3 [Example 70, 9-(2-(cyclopropyl(methyl)amino)pyrimidin-5-yl)-6,7-dimethoxynaphtho[2,3-c]furan-1(3H)-one] | 92.84 | 6.27 | > 50 | – | –
COc1cc2cc3c(c(-c4cnc(N5CCCC(O)C5)nc4)c2cc1OC)C(=O)OC3.Cl (stereo not drawn) [Example 80] | 4.21 | – | – | – | –
COc1cc2cc3c(c(-c4cnc(N(C)c5ccc(C)c(C)c5)nc4)c2cc1OC)C(=O)OC3.Cl [Example 213, 9-(2-((3,4-dimethylphenyl)(methyl)amino)pyrimidin-5-yl)-6,7-dimethoxynaphtho[2,3-c]furan-1(3H)-one] | 2.81 | – | – | – | 5.36
